One may read the IC50 as the concentration that inhibits the measured activity by half. For orientation: EC50 means the midpoint of the concentration-response curve.

Each structure is given as a SMILES string. Read-outs that look alike come from different tables or passages of the source. Some results are limits rather than exact numbers.

Here are results for 16 compounds from US9676782B2, “Substituted pyrazolo[1,5-a]pyrazines as negative allosteric modulators of metabotropic glutamate receptor 3” (Vanderbilt University, priority 2014, dated 2017).

Assay [1] deals with Aβ-induced neurodegeneration. Particulars: cited from earlier work.
The next assay addresses rat mGlu3 (Rattus norvegicus (Rat), UniProt P31422). Description: mGlu3 Ca2+ flux assay. It counts as cell-based. Particulars: for remaining activity at 30 µM: amplitude of response at 30 μM test compound as % of maximal response to glutamate, read-out: rat mGlu3 Glu max (%); for IC50: read-out: rat mGlu3 IC50. In short, it runs like this: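 Cells expressing rat mGlu3 were grown overnight at 37° C. under 5% CO2, then loaded with dye. After dye removal they received 20 μL of assay buffer and sat 10 minutes at room temperature. Calcium flux was read on a Hamamatsu FDSS7000, and fluorescence was expressed as fold over basal and normalized to the maximal glutamate response.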

The target of a further assay is rat mGlu5 (Rattus norvegicus (Rat), UniProt P31424). The experiment in a line: mGlu5 Ca2+ flux assay. It counts as cell-based. Particulars: for Fold selectivity (mGlu3 vs. mGlu5): ratio of rat mGlu5 EC50 or IC50 to rat mGlu3 IC50; for Emax at 30 µM: read-out: rat mGlu5 Glu max (%). An outline of the steps:
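Transfected cells grown overnight at 37° C/5% CO2, dye-loaded, then 5 min in assay buffer at RT before Ca2+ flux read on FDSS7000. Fluorescence as F/F0 fold over basal, normalized to maximal glutamate response; EC50 from unconstrained 4-parameter logistic fit, triplicates weighted evenly.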
On the technique in general: Calcium assays in cells follow changes in intracellular calcium, usually with a dye or a luminescent sensor.

The next assay relates to mGlu1. Description: mGlu selectivity assay: effect of a single concentration on the glutamate concentration-response curve. The class given is cell-based. Particulars: tested at 10 μM. The source says:
(§1) Selectivity versus other mGlus can also be assessed by evaluating the effect of a single concentration of compound on the glutamate concentration-response curve (CRC) in cell lines expressing the mGlu of interest.

For the next assay, the system named is mGlu2. The description is as above. Particulars: tested at 10 μM. The class given is cell-based.
Source text: as §1

The test system of a further assay is mGlu4. Described as above. It counts as cell-based. Particulars: tested at 10 μM.
Source text: as §1

For the next assay, the target named is mGlu6 (Homo sapiens (Human), UniProt O15303). The assay is described as above. The class given is cell-based. Particulars: tested at 10 μM.
Source text: as §1

The next assay concerns mGlu7. The assay is described as above. The class given is cell-based. Particulars: tested at 10 μM.
Source text: as §1

In another assay the test system is mGlu8. Described as above. It counts as cell-based. Particulars: tested at 10 μM.
Source text: as §1

The test system of assay [2] is central mGlu2 and mGlu3 receptors. Particulars: in vivo; cited from earlier work.
The next assay relates to C57Bl6/J mice. Particulars: forced swim test; cited from earlier work.
The test system of a further assay is Helpless (H) mice. Particulars: genetic model of depression; cited from earlier work.
Another assay deals with glioma stem cells (GSC). Particulars: in vitro; cited from earlier work.
In assay [3] the test system is tumors injected into nude mice. Particulars: compared with controls; cited from earlier work.
Another assay concerns schizophrenic patients. Particulars: compared to placebo, P<0.001 at week 4; cited from earlier work.
For the next assay, the system named is cultured astrocytes. Particulars: cited from earlier work.
Setting [4] is: read-out: rat mGlu5 EC50 or IC50.
Setting [5] is: NAM potency, decrease of glutamate EC80 response, >30,000 = no measurable activity, >10,000 = no plateau.
The mark [6] stands for this setting: PAM, amplitude of response at 30 μM test compound as % of maximal response to glutamate.

Sequence of rat mGlu5 (P31424 21-1203): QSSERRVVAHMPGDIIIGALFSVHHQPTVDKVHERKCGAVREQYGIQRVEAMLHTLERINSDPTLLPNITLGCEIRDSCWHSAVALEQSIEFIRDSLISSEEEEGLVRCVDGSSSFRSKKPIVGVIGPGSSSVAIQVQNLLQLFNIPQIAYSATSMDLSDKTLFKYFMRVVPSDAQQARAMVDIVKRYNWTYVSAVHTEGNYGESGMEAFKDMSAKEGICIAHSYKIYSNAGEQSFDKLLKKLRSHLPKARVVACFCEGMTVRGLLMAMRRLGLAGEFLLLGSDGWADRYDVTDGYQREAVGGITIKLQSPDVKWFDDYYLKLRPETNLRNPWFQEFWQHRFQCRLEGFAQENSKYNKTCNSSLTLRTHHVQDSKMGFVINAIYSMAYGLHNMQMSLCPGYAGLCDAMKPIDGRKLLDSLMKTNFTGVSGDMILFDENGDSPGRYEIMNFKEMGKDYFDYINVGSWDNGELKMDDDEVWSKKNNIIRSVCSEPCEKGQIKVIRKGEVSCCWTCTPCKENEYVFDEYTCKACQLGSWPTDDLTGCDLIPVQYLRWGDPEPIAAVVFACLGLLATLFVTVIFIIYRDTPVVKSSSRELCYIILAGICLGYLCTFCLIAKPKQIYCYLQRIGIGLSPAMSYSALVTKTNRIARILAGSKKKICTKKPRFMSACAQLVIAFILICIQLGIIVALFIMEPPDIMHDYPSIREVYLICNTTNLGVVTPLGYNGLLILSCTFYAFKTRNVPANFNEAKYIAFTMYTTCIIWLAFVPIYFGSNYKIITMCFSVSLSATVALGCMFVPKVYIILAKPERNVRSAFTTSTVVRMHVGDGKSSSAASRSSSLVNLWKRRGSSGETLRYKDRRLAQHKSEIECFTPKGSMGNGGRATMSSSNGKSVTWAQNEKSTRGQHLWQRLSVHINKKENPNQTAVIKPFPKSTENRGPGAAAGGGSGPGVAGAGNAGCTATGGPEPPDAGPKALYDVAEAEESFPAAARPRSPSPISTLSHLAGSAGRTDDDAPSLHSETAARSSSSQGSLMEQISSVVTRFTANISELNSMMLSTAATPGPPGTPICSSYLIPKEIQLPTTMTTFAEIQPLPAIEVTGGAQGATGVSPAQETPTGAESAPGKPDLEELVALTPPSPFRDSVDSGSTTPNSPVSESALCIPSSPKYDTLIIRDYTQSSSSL
Sequence of rat mGlu3 (P31422 23-879): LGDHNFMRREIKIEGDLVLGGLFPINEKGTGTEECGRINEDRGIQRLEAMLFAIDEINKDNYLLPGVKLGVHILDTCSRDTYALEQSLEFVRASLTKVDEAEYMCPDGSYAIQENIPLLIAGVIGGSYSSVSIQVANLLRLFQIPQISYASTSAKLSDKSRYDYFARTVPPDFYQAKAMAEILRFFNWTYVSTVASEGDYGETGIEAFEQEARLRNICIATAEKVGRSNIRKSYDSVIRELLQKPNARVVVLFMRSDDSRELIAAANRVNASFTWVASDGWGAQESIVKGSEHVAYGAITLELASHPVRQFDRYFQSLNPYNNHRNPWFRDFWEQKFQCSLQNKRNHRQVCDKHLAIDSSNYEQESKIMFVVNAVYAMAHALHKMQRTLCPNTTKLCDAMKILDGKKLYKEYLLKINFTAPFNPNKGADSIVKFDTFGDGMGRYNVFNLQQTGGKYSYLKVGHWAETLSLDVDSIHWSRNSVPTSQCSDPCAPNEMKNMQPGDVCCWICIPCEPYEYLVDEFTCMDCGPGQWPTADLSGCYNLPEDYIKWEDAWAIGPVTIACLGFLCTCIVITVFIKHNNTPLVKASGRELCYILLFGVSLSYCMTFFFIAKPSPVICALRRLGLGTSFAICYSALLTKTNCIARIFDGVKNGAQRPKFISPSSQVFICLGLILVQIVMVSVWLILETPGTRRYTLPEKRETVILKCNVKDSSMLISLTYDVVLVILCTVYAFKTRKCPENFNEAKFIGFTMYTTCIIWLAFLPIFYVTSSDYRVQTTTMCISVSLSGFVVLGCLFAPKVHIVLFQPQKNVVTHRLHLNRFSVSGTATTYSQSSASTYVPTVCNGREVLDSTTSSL
Sequence of mGlu6 (O15303 25-877): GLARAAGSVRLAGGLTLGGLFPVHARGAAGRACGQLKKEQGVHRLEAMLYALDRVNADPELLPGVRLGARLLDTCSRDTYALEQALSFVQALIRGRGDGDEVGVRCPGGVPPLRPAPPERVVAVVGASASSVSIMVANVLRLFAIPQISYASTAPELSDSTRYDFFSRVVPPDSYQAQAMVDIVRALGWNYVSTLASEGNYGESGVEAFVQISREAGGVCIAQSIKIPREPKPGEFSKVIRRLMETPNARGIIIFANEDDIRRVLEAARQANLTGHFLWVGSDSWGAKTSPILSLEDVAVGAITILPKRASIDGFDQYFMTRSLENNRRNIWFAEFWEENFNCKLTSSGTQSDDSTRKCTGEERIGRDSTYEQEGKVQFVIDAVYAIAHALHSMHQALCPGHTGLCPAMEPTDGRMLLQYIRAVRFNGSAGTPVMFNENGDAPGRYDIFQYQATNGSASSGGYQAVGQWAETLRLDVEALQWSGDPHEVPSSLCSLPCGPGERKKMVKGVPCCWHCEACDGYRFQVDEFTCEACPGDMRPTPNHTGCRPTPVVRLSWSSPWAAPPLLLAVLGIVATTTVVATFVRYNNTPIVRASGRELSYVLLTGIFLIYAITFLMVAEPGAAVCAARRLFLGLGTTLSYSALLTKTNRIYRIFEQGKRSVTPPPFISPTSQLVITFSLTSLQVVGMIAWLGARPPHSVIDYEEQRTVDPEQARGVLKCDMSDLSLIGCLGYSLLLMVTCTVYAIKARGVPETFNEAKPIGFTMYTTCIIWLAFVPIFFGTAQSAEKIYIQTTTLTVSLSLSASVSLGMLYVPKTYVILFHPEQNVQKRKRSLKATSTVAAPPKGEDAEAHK

Turning to `CCS(=O)(=O)N(Cc1cccnc1)c1cccc(-c2ccc(C#N)cc2)c1` [LY566332], the “effect on Aβ-induced neurodegeneration” value in [1] is “amplified Aβ-induced neurodegeneration”.

With `N#CCc1ccc(NCc2cc3n(n2)CCN(c2ccc(F)cc2)C3=O)cc1` [Compound 26, 2-(4-(((5-(4-fluorophenyl)-4-oxo-4,5,6,7-tetrahydropyrazolo[1,5-a]pyrazin-2-yl)methyl)amino)phenyl)acetonitrile], on rat mGlu3, the remaining activity at 30 µM turned out to be 1.01% and the IC50 is 890 nM. For the same compound, the “Fold selectivity (mGlu3 vs. mGlu5)” value at rat mGlu5 is listed as above 33. For the same compound, the EC50 at rat mGlu5 (setting [4]) was above 30000 nM. Also, the “activity against mGlu1” value in the assay with mGlu1 is “inactive”. In the assay on mGlu2, the “activity against mGlu2” value is “inactive”. Further, the “activity against mGlu4” value in the assay with mGlu4 was “inactive”. Moreover, the “activity against mGlu6” value on mGlu6 is “inactive”. For the same compound, the “activity against mGlu7” value in the assay on mGlu7 is “inactive”. Moreover, the “activity against mGlu8” value in the assay on mGlu8 was “inactive”.

As for `Cc1cc(-c2cccc(C3=Nc4cc(C)c(C(F)(F)F)cc4NC(=O)C3)c2)cc(C)n1` [RO4491533], the “reversal of hypolocomotor effect of LY379268” value in assay [2] is listed as “reversed the hypolocomotor effect”. Moreover, the immobility time entry with C57Bl6/J mice is “dose-dependently reduced immobility time”. Also, in the assay on Helpless (H) mice, the “activity in the tail suspension test” value is “active”.

With `N[C@](CC1c2ccccc2Oc2ccccc21)(C(=O)O)[C@H]1C[C@@H]1C(=O)O` [LY341495], the “reversal of hypolocomotor effect of LY379268” value in assay [2] was “achieved the same result”. The immobility time entry in the assay on C57Bl6/J mice was “dose-dependently reduced immobility time”. Also, the “activity in the tail suspension test” value in the assay with Helpless (H) mice is reported as “active”. In addition, the “effect on Aβ-induced neurodegeneration” value in assay [1] is recorded as “prevented”. Besides, in the assay with glioma stem cells (GSC), the proliferation rates result was “decreased in a time-dependent manner” and the “proportion of cells in S phase” value was “decreased in a time-dependent manner”. In addition, in assay [3], the “growth rate of tumors” value is “reduced” and the volume of tumors result was “reduced”.

For the compound `N[C@@]1(C(=O)O)CS(=O)(=O)[C@H]2[C@H](C(=O)O)[C@H]21` [LY404039], the “positive and negative symptoms of schizophrenia” value in the assay with schizophrenic patients is “statistically significant improvements in both positive and negative symptoms”.

In the case of `COc1ccc(N(C)Cc2cc3n(n2)CCN(c2ccc(F)cc2)C3=O)cc1` [Compound 92, 5-(4-fluorophenyl)-2-(((4-methoxyphenyl)(methyl)amino)methyl)-6,7-dihydropyrazolo[1,5-a]pyrazin-4(5H)-one], the IC50 at rat mGlu3 (setting [5]) was 986 nM. At rat mGlu3, the remaining activity at 30 µM worked out at 1.39%. Also, the “Fold selectivity (mGlu3 vs. mGlu5)” value on rat mGlu5 is on record as above 30. Besides, the EC50 on rat mGlu5 (setting [4]) is above 30000 nM. Moreover, the “activity against mGlu1” value with mGlu1 was “inactive”. Moreover, the “activity against mGlu2” value with mGlu2 is “inactive”. Further, the “activity against mGlu4” value in the assay on mGlu4 is “inactive”. Moreover, at mGlu6, the “activity against mGlu6” value is “inactive”. For the same compound, in the assay on mGlu7, the “activity against mGlu7” value was “inactive”. Moreover, in the assay with mGlu8, the “activity against mGlu8” value was “inactive”.

Turning to `O=C1c2cc(CNc3ccccn3)nn2CCN1c1ccc(F)cc1` [Compound 156, 5-(4-fluorophenyl)-2-((pyridin-2-ylamino)methyl)-6,7-dihydropyrazolo[1,5-a]pyrazin-4(5H)-one], the IC50 on rat mGlu3 (setting [5]) was 3190 nM; at rat mGlu5 (compound noted as NAM or partial antagonist (PAnt) at mGlu5, glutamate EC80, read-out: rat mGlu5 EC50 or IC50), above 10000 nM. In addition, on rat mGlu3, the remaining activity at 30 µM is -1.17%. In addition, the Emax at 30 µM on rat mGlu5 (compound noted as NAM or partial antagonist (PAnt) at mGlu5, response at 30 μM as % of maximal glutamate response) worked out at 49.1%. Besides, the “Fold selectivity (mGlu3 vs. mGlu5)” value at rat mGlu5 is above 3.1.

Consider `CN(Cc1cc2n(n1)CCN(c1ccc(F)cc1)C2=O)c1cccc(Cl)c1` [Compound 87, 2-(((3-chlorophenyl)(methyl)amino)methyl)-5-(4-fluorophenyl)-6,7-dihydropyrazolo[1,5-a]pyrazin-4(5H)-one], for which the IC50 on rat mGlu3 (setting [5]) was found to be 805 nM. In addition, the remaining activity at 30 µM on rat mGlu3 was 0.71%. In addition, the Emax at 30 µM on rat mGlu5 (setting [6]) is 41.9%. Also, the “Fold selectivity (mGlu3 vs. mGlu5)” value on rat mGlu5 is given as above 12. The EC50 on rat mGlu5 (setting [4]) was above 10000 nM.

As for `O=C1c2cc(CNc3ccc4c(c3)OC(F)(F)O4)nn2CCN1c1ccc(F)cc1` [Compound 39, 2-(((2,2-difluorobenzo[d][1,3]dioxol-5-yl)amino)methyl)-5-(4-fluorophenyl)-6,7-dihydropyrazolo[1,5-a]pyrazin-4(5H)-one], the IC50 at rat mGlu3 (setting [5]) worked out at 2880 nM. In addition, the remaining activity at 30 µM on rat mGlu3 was found to be 1.95%. At rat mGlu5 (setting [6]), the Emax at 30 µM was 75.7%. The “Fold selectivity (mGlu3 vs. mGlu5)” value on rat mGlu5 was above 3.4. Besides, on rat mGlu5 (setting [4]), the EC50 was above 10000 nM.

Take `O=C1c2cc(CNc3cccc(Cl)c3)nn2CCN1c1ccc(F)cc1` [Compound 9, 2-(((3-chlorophenyl)amino)methyl)-5-(4-fluorophenyl)-6,7-dihydropyrazolo[1,5-a]pyrazin-4(5H)-one]: the IC50 at rat mGlu3 (setting [5]) was 1210 nM. Besides, the remaining activity at 30 µM on rat mGlu3 was 2.95%. Further, the Emax at 30 µM at rat mGlu5 (setting [6]) was 82.8%. Moreover, the “Fold selectivity (mGlu3 vs. mGlu5)” value on rat mGlu5 is reported as 2.74. In addition, on rat mGlu5 (setting [4]), the EC50 stood at 3320 nM.

Take `COc1ccc(N(C)Cc2cc3n(n2)CCN(c2ccc(F)c(F)c2)C3=O)cc1` [Compound 97, 5-(3,4-difluorophenyl)-2-(((4-methoxyphenyl)(methyl)amino)methyl)-6,7-dihydropyrazolo[1,5-a]pyrazin-4(5H)-one]: the IC50 at rat mGlu3 (setting [5]) stood at 1080 ± 240 nM. At rat mGlu3, the remaining activity at 30 µM was determined as 1.74 ± 0.56%. Moreover, the “Fold selectivity (mGlu3 vs. mGlu5)” value on rat mGlu5 was above 27. For the same compound, on rat mGlu5 (setting [4]), the EC50 is above 30000 nM.

`COc1ccc(NCc2cc3n(n2)CCN(c2ccc(Cl)cc2)C3=O)cc1` [Compound 81, 5-(4-chlorophenyl)-2-(((4-methoxyphenyl)amino)methyl)-6,7-dihydropyrazolo[1,5-a]pyrazin-4(5H)-one]: the IC50 at rat mGlu3 (setting [5]) amounted to 1360 nM. The remaining activity at 30 µM on rat mGlu3 is 15.4%. Moreover, the “Fold selectivity (mGlu3 vs. mGlu5)” value at rat mGlu5 is given as above 22. Moreover, the EC50 on rat mGlu5 (setting [4]) is above 30000 nM.

`N[C@@]1(C(=O)O)CO[C@H]2[C@H](C(=O)O)[C@H]21` [LY379268]: the “effect on Aβ-induced neurodegeneration” value in assay [1] is on record as “neuroprotective activity”. In addition, the sAPPα release result in the assay on cultured astrocytes is given as “incremented sAPPα release”.

In the case of `O=C1c2cc(CNc3ccc(OC(F)F)cc3F)nn2CCN1c1ccc(F)cc1` [Compound 37, 2-(((4-(difluoromethoxy)-2-fluorophenyl)amino)methyl)-5-(4-fluorophenyl)-6,7-dihydropyrazolo[1,5-a]pyrazin-4(5H)-one], on rat mGlu3, the remaining activity at 30 µM was found to be 2.57% and the IC50 was 334 nM. Further, the Emax at 30 µM at rat mGlu5 (setting [6]) came to 38.4%. For the same compound, on rat mGlu5, the “Fold selectivity (mGlu3 vs. mGlu5)” value is on record as above 29. Moreover, the EC50 at rat mGlu5 (setting [4]) was above 10000 nM.

For `O=C1c2cc(CNc3ccccc3)nn2CCN1c1ccc(F)cc1` [Compound 2, 5-(4-fluorophenyl)-2-((phenylamino)methyl)-6,7-dihydropyrazolo[1,5-a]pyrazin-4(5H)-one], the IC50 at rat mGlu3 (setting [5]) came to 1320 nM. Moreover, the remaining activity at 30 µM on rat mGlu3 came to 1.99%. Further, the Emax at 30 µM on rat mGlu5 (setting [6]) stood at 98.3%. In addition, the “Fold selectivity (mGlu3 vs. mGlu5)” value at rat mGlu5 worked out at 1.55. The EC50 at rat mGlu5 (setting [4]) was 2040 nM.

With `COc1ccc(N(C)Cc2cc3n(n2)CCN(c2cccc(C)c2)C3=O)cc1` [Compound 103, 2-(((4-methoxyphenyl)(methyl)amino)methyl)-5-(m-tolyl)-6,7-dihydropyrazolo[1,5-a]pyrazin-4(5H)-one], the IC50 at rat mGlu3 (setting [5]) was 805 nM. In addition, at rat mGlu3, the remaining activity at 30 µM was 1.16%. In addition, the “Fold selectivity (mGlu3 vs. mGlu5)” value on rat mGlu5 is above 37. Further, on rat mGlu5 (setting [4]), the EC50 was above 30000 nM.
